Experiments:
[1] = tested on: H460 cells; test: Cell migration (scratch assay, Transwell); assay type: cell-based, human; settings: 100 nmol/L, 48 h
Method: Method 1: H460 cells with a cell density of more than 90% in 10 cm^2 dishes were plated in 12-well plates using serum-free medium according to the cell growth rate. After 12 h, 200 uL pipette tips were used to draw straight lines in the wells. The floating cells were washed away and transfection was performed, and the groups (three wells per group, two lines per well) were divided as follows: • blank control group: 200 uL of opti-MEM per well • negative control group (NC group) and experimental group: • A. 100 uL of opti-MEM and 2 uL of iMax were mixed well for 5 min • B. 100 uL of opti-MEM and 5 uL of small RNA (final concentration 100 nmol/L) were mixed well • C. solution A and solution B were mixed well and let stand for 15 min, and then was added to each well at a 200 uL system • Note: 100 uL of nuclease-free water was added to 2 nmol of small RNA dry powder for dissolution at a storage concentration of 20 umol/L
After 48 h, the supernatant was discarded and images were taken under a microscope.
Method 2: H460 cells with a cell density of more than 90% in 10 cm^2 dishes were digested and then resuspended with 1 mL of serum-free medium and counted. 100,000 cells (100 uL) were plated in the upper chamber, and complete medium with 10% FBS was added to the lower chamber of each Transwell (migration chamber). […]
(§1) 1) H460 cells with a cell density of more than 90% in 10 cm^2 dishes were digested and then resuspended with 1 mL of serum-free medium and counted. […]
as §1

[2] = tested on: primary lung cancer Kras^LSL-G12Dp53^fl/fl (KP) mouse model; test: Tumor burden of mice with primary lung cancer (HE lung sections); assay type: in vivo; settings: 10 nmol daily by gavage for one month, sphingosine(d18:1) delivery system, HE-stained left lung section, vs NC group
Text: The mouse model of primary lung cancer was Kras^LSL-G12Dp53^fl/fl (KP).
Mice were weighed and assigned to the negative control group (NC group) and HQi-sRNA-2 group randomly. The NC group was the negative control, in which a sphingosine(d18:1)-NC-sRNA herbal medicine delivery system was constructed from NC-sRNA. The HQi-sRNA-2 group was the experimental group, in which a sphingosine(d18:1)-HQi-sRNA-2 herbal medicine delivery system was constructed from HQi-sRNA-2.
The herbal medicine delivery system was constructed by heating and mixing 10 nmol of sRNA, 100 ug of sphingosine(d18:1) and 300 ul of sterile enzyme-free water in a water bath at 90° C. for 15 minutes.
Each mouse with a uniform body weight was dosed by gavage. Each mouse was given 10 nmol of HQi-sRNA-2 mimic daily by gavage for one month.
The lungs of mice were collected to prepare pathological sections. The left lung was collected and sliced at the largest surface for every mouse, and stained with HE. The area of tumor in the whole pathological section was counted, the tumor burden was calculated, and statistical analysis was performed.
Mice were weighed and assigned to the negative control group (NC group), MDM-sRNA-39 group and MDM-sRNA-163 group randomly. The NC group was the negative control, in which a sphingosine(d18:1)-NC-sRNA herbal medicine delivery system was constructed from NC-sRNA. The MDM-sRNA-39 group was an experimental group, in which a sphingosine(d18:1)-MDM-sRNA-39 herbal medicine delivery system was constructed from MDM-sRNA-39. The MDM-sRNA-163 group was an experimental group, in which a sphingosine(d18:1)-MDM-sRNA-163 herbal medicine delivery system was constructed from MDM-sRNA-163.

For “MDM-sRNA-163: small RNA derived from Maytenus hookeri, sequence UGACUCUAGUCCGACUUUGUGAAAUGACU (listed as RNA, chemistry not given here)”, the cell migration [1] was “inhibits” and the “tumor burden of mice with primary lung cancer” value (“tumor burden of mice” for short) [2] was “significantly reduced”.
For “HQi-sRNA-2: small RNA derived from Scutellaria baicalensis, sequence AUGGUUCGAUUCCGGAGAGGG (listed as RNA, chemistry not given here)”, the cell migration [1] was “inhibits” and the “tumor burden of mice” value [2] was “significantly reduced”.
In the case of “MDM-sRNA-39: small RNA derived from Maytenus hookeri, sequence GGGAUUGUAGUUCAAUUGGUCAGAGCACC (listed as RNA, chemistry not given here)”, the cell migration [1] is reported as “inhibits” and the “tumor burden of mice” value [2] is reported as “significantly reduced”.
